# Measurements published in patent US20080269267A1, “KINASE INHIBITORS USEFUL FOR THE TREATMENT OF MYLEOPROLIFIC DISEASES AND OTHER PROLIFERATIVE DISEASES” (Deciphera Pharmaceuticals, LLC, priority 2007, published 2008).
# Assays:
# [1] = target: T1, T315I Abl kinase (SEQ ID NO:2) (Homo sapiens, UniProt P00519, T315I); assay: T315I Abl kinase assay (pyruvate kinase/lactate dehydrogenase coupled); conditions: 1 h preincubation at 30° C., ATP 500 μM; read-out: Abl T315l Enzyme Assay, biochemical IC50
# T1 construct: purchased deCode Genetics
# T1 sequence (P00519 with tags, fused parts or gaps T315I): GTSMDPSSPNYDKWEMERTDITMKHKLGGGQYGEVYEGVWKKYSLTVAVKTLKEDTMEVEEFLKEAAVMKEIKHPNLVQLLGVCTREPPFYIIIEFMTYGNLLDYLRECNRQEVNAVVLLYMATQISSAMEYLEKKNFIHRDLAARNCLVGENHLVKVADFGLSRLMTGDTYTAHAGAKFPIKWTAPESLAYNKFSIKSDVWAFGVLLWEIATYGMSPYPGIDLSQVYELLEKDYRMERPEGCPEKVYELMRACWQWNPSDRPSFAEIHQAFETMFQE
# Protocol: Abl Kinase (SEQ ID NO:2) Assay
# Activity of T315I Abl kinase (SEQ ID NO:2) was determined by following the production of ADP from the kinase reaction through coupling with the pyruvate kinase/lactate dehydrogenase system (e.g., Schindler, et al. Science (2000) 289, 1938-1942). In this assay, the oxidation of NADH (thus the decrease at A340nm) was continuously monitored spectrophometrically. The reaction mixture (100 μl) contained Abl kinase (4.4 nM. […] Abl from deCode Genetics), peptide substrate (EAIYAAPFAKKK, 0.2 mM), MgCl2 (10 mM), pyruvate kinase (4 units), lactate dehydrogenase (0.7 units), phosphoenol pyruvate (1 mM), and NADH (0.28 mM) in 90 mM Tris buffer containing 0.2% octyl-glucoside and 1% DMSO, pH 7.5. Test compounds were incubated with T315I Abl (SEQ ID NO:2) and other reaction reagents at 30° C. for 1 h before ATP (500 μM) was added to start the reaction. The absorption at 340 nm was monitored continuously for 2 hours at 30° C. on Polarstar Optima plate reader (BMG). The reaction rate was calculated using the 1.0 to 2.0 h time frame. Percent inhibition was obtained by comparison of reaction rate with that of a control (i.e. with no test compound). IC50 values were calculated from a series of percent inhibition values determined at a range of inhibitor concentrations using software routines as implemented in the GraphPad Prism software package.
# [2] = target: B-Raf(V600E) kinase (SEQ ID NO:11) (Homo sapiens, UniProt P15056, V600E); assay: B-Raf(V600E) kinase assay (pyruvate kinase/lactate dehydrogenase coupled, MEK1 substrate); conditions: 1 h preincubation at 30° C., ATP 0.2 mM; read-out: B-Raf V600E Enzyme Assay, biochemical IC50
# B-Raf(V600E) kinase (SEQ ID NO:11), sequence (P15056 with tags, fused parts or gaps V600E): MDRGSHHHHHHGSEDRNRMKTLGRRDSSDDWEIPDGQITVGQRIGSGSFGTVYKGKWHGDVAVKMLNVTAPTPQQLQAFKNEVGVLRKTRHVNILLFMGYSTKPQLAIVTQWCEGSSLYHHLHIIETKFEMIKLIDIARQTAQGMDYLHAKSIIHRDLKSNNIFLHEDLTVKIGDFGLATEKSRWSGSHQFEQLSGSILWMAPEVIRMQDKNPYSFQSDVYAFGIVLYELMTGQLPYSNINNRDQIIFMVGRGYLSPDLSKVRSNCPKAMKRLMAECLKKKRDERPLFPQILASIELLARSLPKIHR
# Protocol: B-Raf(V600E) Kinase Assay
# The activity of B-Raf(V600E) kinase (SEQ ID NO:11) was determined by following the formation of ADP from the reaction through coupling with the pyruvate kinase/lactate dehydrogenase system (e.g., Schindler, et al. Science (2000) 289, 1938-1942). In this assay, the oxidation of NADH (thus the decrease at A340nm) was continuously monitored spectrophotometrically. The reaction mixture (100 μl) contained B-Raf(V600E) kinase (0.34 nM nominal concentration, SEQ ID NO:11), unphosphorylated, full-length MEK1 (42 nM, SEQ ID NO:12), MgCl2 (13 mM), pyruvate kinase (3.5 units), lactate dehydrogenase (5.5 units), phosphoenolpyruvate (1 mM), and NADH (0.28 mM), in 60 mM Tris buffer, containing 0.13% octyl-glucoside and 3.5% DMSO concentration at pH 7.5. The test compounds were incubated with the reaction mixture at 30° C. for 1 h. The reaction was initiated by adding ATP (0.2 mM, final concentration). The absorption at 340 nm was continuously monitored for 3 h at 30° C. on a Polarstar Optima plate reader (BMG). The reaction rate was calculated using the 0.5 h to 1.5 h time frame. Percent inhibition was obtained by comparison of reaction rate with that of a control (i.e. with no test compound). IC50 values were calculated from a series of percent inhibition values determined at a range of inhibitor concentrations using software routines as implemented in the GraphPad Prism software package.
# [3] = target: T2, BaF3 cells transfected with T315I p210 BCR-Abl (Homo sapiens, UniProt P00519, T315I, cells depend on it); assay: Ba/F3 p210 T315I whole cell proliferation assay (Cell Titer Blue, 72 hours); format: cell-based; conditions: 72 hours incubation; read-out: Ba/F3 p210 T315I whole cell proliferation assay, antiproliferation IC50
# T2 construct: fused on or other part: P11274 (Breakpoint cluster region protein)
# Protocol: BaF3 cells (parental or transfected with the following: wild type p210 BCR-Abl and T315I p210 BCR-Abl was obtained from Professor Richard Van Etten (New England Medical Center, Boston, Mass.). Briefly, cells were grown in RPMI 1640 supplemented with 10% characterized fetal bovine serum (HyClone, Logan, Utah) at 37 degrees Celsius, 5% CO2, 95% humidity. Cells were allowed to expand until reaching 80% saturation at which point they were subcultured or harvested for assay use.
# A serial dilution of test compound was dispensed into a 96 well black clear bottom plate (Corning, Corning, N.Y.). For each cell line, three thousand cells were added per well in complete growth medium. Plates were incubated for 72 hours at 37 degrees Celsius, 5% CO2, 95% humidity. At the end of the incubation period Cell Titer Blue (Promega, Madison, Wis.) was added to each well and an additional 4.5 hour incubation at 37 degrees Celsius, 5% CO2, 95% humidity was performed. Plates were then read on a BMG Fluostar Optima (BMG, Durham, N.C.) using an excitation of 544 nm and an emission of 612 nm. Data was analyzed using Prism software (Graphpad, San Diego, Calif.) to calculate IC50's.
IC50 [1],IC50 [2],GI50 [3],SMILES
< 100 nM,< 1000 nM,< 100 nM,"CC(C)n1cc(NC(=O)Nc2ccc(Oc3ccnc(-c4cnn(C)c4)c3)cc2F)c(-c2ccccc2)n1 [Example 21, 1-(2-fluoro-4-(2-(1-methyl-1H-pyrazol-4-yl)pyridin-4-yloxy)phenyl)-3-(1-isopropyl-3-phenyl-1H-pyrazol-4-yl)urea]"
< 100 nM,< 100 nM,< 100 nM,"CC(C)c1cc(NC(=O)Nc2ccc(Oc3ccnc(-c4cnn(C)c4)c3)cc2F)n(-c2cccc(F)c2)n1 [Example 24, 1-(2-fluoro-4-(2-(1-methyl-1H-pyrazol-4-yl)pyridin-4-yloxy)phenyl)-3-(1-(3-fluorophenyl)-3-isopropyl-1H-pyrazol-5-yl)urea]"
< 100 nM,< 1000 nM,< 10000 nM,"Cn1cc(-c2cc(Oc3ccc(NC(=O)Nc4cc(-c5ccccc5F)nn4C)c(F)c3F)ccn2)cn1 [Example 25, 1-(2,3-difluoro-4-(2-(1-methyl-1H-pyrazol-4-yl)pyridin-4-yloxy)phenyl)-3-(3-(2-fluorophenyl)-1-methyl-1H-pyrazol-5-yl)urea]"
